The values below come from patent US8716318B2, “Pyridone sulfonamides and pyridone sulfamides as MEK inhibitors” (Ardea Biosciences, priority 2006, dated 2014).

A value given as a limit tells only on which side of the number the result lay.

One experiment concerns THP-1. The experiment is described as follows: Growth inhibition assay (GI50), THP-1. The class given is cell-based. Conditions: Homo sapiens.
Experiment [1] addresses T1, human GST-MEK1^CA (Ser218Asp, Ser222Asp) (Homo sapiens, UniProt Q02750, S218D/S222D).
T1 construct: GST; made in house; host or cells: Escherichia coli
The experiment is described as follows: MEK1 kinase assay (generation of IC50 data, 33P filter assay with ERK2 and MBP). It is filed as biochemical. Conditions: ATP. An excerpt:
Materials and preparation of reagents: Human GST-MEK1 and the constitutively active allele GST-MEK1^CA (harboring the mutations Ser218Asp and Ser222Asp) were subcloned into the yeast expression vector pGEM4Z (Promega, Madison, Wis.) from the wild type human MEK1 cDNA. GST-MEK1^CA was expressed in Escherichia coli and partially purified using Glutathione Sepharose 4B affinity resin (Amersham Pharmacia Biotech, Piscataway, N.J.). The ERK2 allele was subcloned from MAPK2/Erk2 cDNA (wild type) in pUSEamp (Upstate Biotechnology, Inc., Waltham, Mass.) into the vector pET21a (Novagen, Madison, Wis.) resulting in an N-terminal histidine-tagged mouse ERK2 allele. ERK2 was expressed and purified to homogeneity [Zhang, 1993 #33]. Myelin basic protein (MBP) was purchased from Gibco BRL (Rockville, Md.). EasyTides adenosine 5′-triphosphate (ATP) ([γ-^33P]) (NEN Perkin Elmer, Wellesley, Mass.) was the source of radiolabel for all kinase reactions. Activated Raf-1 (truncated) and activated MAPKinase 2/ERK2 were purchased from Upstate, Inc. (Lake Placid, N.Y.). 4-20% Criterion Precast gels were purchased from Bio-Rad (Hercules, Calif.).
Determination of enzymatic activity: Compounds were diluted from dimethylsulfoxide (DMSO) stocks into 1×HMNDE (20 mM HEPES pH 7.2, 1 mM MgCl2, 100 mM NaCl, 1.25 mM DTT, 0.2 mM EDTA). A typical 25-microliter assay contained 0.002 nanomoles MEK1^CA, 0.02 nanomoles ERK2, 0.25 nanomoles MBP, 0.25 nanomoles unlabeled ATP, and 0.1 μCi [γ^33P] ATP. The screening assay essentially comprised four additions. Five μl of diluted compound were dispensed to 96-well assay plates. Ten μl of 2.5× enzyme cocktail (MEK1^CA and ERK2 only) were then added to each well followed by a pre-incubation for 30 minutes at ambient temperature. Ten μl of 2.5× substrate cocktail (labeled and unlabeled ATP plus MBP) were then added, followed by incubation for 60 minutes at ambient temperature. Finally, 100 μl of 10% trichloroacetic acid (TCA) were added and incubated for 30 minutes at room temperature to halt the reaction and precipitate radiolabeled protein products. Reaction products were harvested on glass fiber 96 well filter plates prewetted with water and 1% pyrophosphate. The filter plate was then washed 5 times with water. Water was displaced by absolute ethanol and the plate was allowed to air dry for 30 minutes at room temperature. A back seal was applied manually and 40 μl of scintillation cocktail were dispensed to each well. A top seal was applied and the plate was counted in the TopCount for two seconds per well.

The test system of another experiment is A375 cells. Description: Growth inhibition assay (GI50), A375 cells, CellTiterGlo. It is filed as cell-based. Conditions: Homo sapiens, A-375, 48 hr, ATP levels. As for the experimental part: For growth inhibition experiments, A375 cells were plated in white 384-well microplates at 1000 cells/[…]/well. After 24 hr, […] of a 5× drug stock solution was added. All drugs were initially prepared as 200× stocks in DMSO, such that final DMSO concentration was 0.5%. Cells were incubated for 48 hr at 37° C. and ATP levels were determined using CellTiterGlo (Promega, Madison, Wis.). A control MEK inhibitor was used to determine the ATP level corresponding to full growth inhibition and the concentration of test compound that gave ATP levels midway between full growth inhibition and vehicle only ATP levels was determined to be the GI50 using non-linear regression (GraphPad Prism 4).
(In ATP-based viability assays light output follows the ATP content of the culture.)

Experiment [2] in a line: EC50 (no method described).

T1 sequence (Q02750 whole entry S218D/S222D): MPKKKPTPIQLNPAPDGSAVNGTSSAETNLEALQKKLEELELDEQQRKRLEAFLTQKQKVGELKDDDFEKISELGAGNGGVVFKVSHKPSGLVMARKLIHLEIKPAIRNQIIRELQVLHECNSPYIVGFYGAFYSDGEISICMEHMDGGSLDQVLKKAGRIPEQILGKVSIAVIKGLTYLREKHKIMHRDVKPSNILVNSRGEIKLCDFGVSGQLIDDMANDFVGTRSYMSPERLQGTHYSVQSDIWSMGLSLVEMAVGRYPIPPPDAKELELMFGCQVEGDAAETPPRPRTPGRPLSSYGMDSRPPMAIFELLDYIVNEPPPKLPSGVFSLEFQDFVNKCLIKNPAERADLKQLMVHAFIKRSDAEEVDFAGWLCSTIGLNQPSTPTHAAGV

One may read the GI50 as the concentration that inhibits growth by half. What is called IC50 is the concentration that inhibits the measured activity by half. Read a high IC50 as weaker potency in that assay. In the case of `Cn1cc(NS(=O)(=O)C2CC2)c(Nc2ccc(Br)cc2F)c(F)c1=O` [Example 7, Cyclopropanesulfonic acid [4-(4-bromo-2-fluoro-phenylamino)-5-fluoro-1-methyl-6-oxo-1,6-dihydro-pyridin-3-yl]-amide], the GI50 in the experiment on THP-1 and in the experiment with A375 cells was more than 1000 nM in each case. In experiment [1], this compound showed an IC50 of 500 to 1000 nM.

As usually defined, the EC50 is the midpoint of the concentration-response curve. On to `Cn1cc(NS(=O)(=O)C2CC2)c(Nc2ccc(I)cc2F)c(Cl)c1=O` [Example 9, Cyclopropanesulfonic acid [5-chloro-4-(2-fluoro-4-iodo-phenylamino)-1-methyl-6-oxo-1,6-dihydro-pyridin-3-yl]-amide], for which the EC50 in experiment [2] is less than 100 nM. Further, the GI50 in the experiment with THP-1 is more than 1000 nM; in the experiment with A375 cells, 500 to 1000 nM. Besides, in experiment [1], the IC50 was less than 100 nM.

As to `Cn1cc(NS(=O)(=O)C2CC2)c(Nc2ccc(Br)cc2F)c(Cl)c1=O` [Example 3, N-(5-chloro-4-(2-fluoro-4-bromophenylamino)-1-methyl-6-oxo-1,6-dihydropyridin-3-yl)cyclopropanesulfonamide], the EC50 in experiment [2] fell in the range of 100 to 500 nM. For the same compound, the GI50 with THP-1 and in the experiment with A375 cells was more than 1000 nM each time. The IC50 in experiment [1] lay within 500 to 1000 nM.

Regarding `Cn1cc(NS(=O)(=O)NCC(O)CO)c(Nc2ccc(I)cc2F)cc1=O` (stereo not drawn) [Example 13], the GI50 in the experiment with THP-1 and in the experiment with A375 cells was more than 1000 nM throughout. For the same compound, in experiment [1], the IC50 is more than 1000 nM.

In experiment [2], `Cc1c(Nc2ccc(I)cc2F)c(NS(=O)(=O)C2CC2)cn(C)c1=O` [Example 5, N-(4-(2-fluoro-4-iodophenylamino)-1,5-dimethyl-6-oxo-1,6-dihydropyridin-3-yl)cyclopropanesulfonamide] yielded an EC50 of less than 100 nM. This compound also yielded an IC50 in experiment [1] of less than 100 nM.

The compound `Cc1c(Nc2ccc(I)cc2F)c(NS(=O)(=O)C2(Cl)CC2)cn(C)c1=O` [Example 10, 1-Chloro-Cyclopropanesulfonic acid [4-(2-fluoro-4-iodo-phenylamino)-1,5-dimethyl-6-oxo-1,6-dihydro-pyridin-3-yl]-amide] displayed an EC50 in experiment [2] of less than 100 nM. The IC50 in experiment [1] was in the range of 100 to 500 nM.

Regarding `CN(C)S(=O)(=O)Nc1cn(C)c(=O)cc1Nc1ccc(I)cc1F` [Example 6, N-(4-(2-fluoro-4-iodophenylamino)-1-methyl-6-oxo-1,6-dihydropyridin-3-yl)dimethyl-1-sulfamide], the EC50 in experiment [2] lay in the range of 500 to 1000 nM. In addition, the GI50 is 100 to 500 nM in the experiment on THP-1 and 500 to 1000 nM in the experiment with A375 cells. The compound further returned an IC50 in experiment [1] of more than 1000 nM.

In experiment [2], `Cn1cc(NS(=O)(=O)C2CC2)c(Nc2ccc(I)cc2F)c(F)c1=O` [Example 4, N-(5-fluoro-4-(2-fluoro-4-iodophenylamino)-1-methyl-6-oxo-1,6-dihydropyridin-3-yl)cyclopropanesulfonamide] yielded an EC50 of less than 100 nM. The GI50 was more than 1000 nM with THP-1 and less than 100 nM in the experiment with A375 cells. Moreover, the IC50 in experiment [1] is less than 100 nM.

As for `Cn1cc(NS(=O)(=O)C2(CC(=O)CO)CC2)c(Nc2ccc(I)cc2F)c(F)c1=O` [Example 12, 1-(3-Hydroxy-2-oxo-propyl)-cyclopropanesulfonic acid [5-fluoro-4-(2-fluoro-4-iodo-phenylamino)-1-methyl-6-oxo-1,6-dihydro-pyridin-3-yl]-amide], in experiment [2], the EC50 was less than 100 nM. The compound further yielded an IC50 in experiment [1] of less than 100 nM.

The compound `Cn1cc(NS(=O)(=O)C2CC2)c(Nc2ccc(I)cc2F)cc1=O` [Example 1, N-(4-(2-fluoro-4-iodophenylamino)-1-methyl-6-oxo-1,6-dihydropyridin-3-yl)cyclopropanesulfonamide] yielded an EC50 in experiment [2] of less than 100 nM. Also, the GI50 in the experiment with THP-1 and in the experiment with A375 cells was less than 100 nM each time. The compound also yielded an IC50 in experiment [1] of 500 to 1000 nM.

`Cn1cc(NS(=O)(=O)C2(CC(O)CO)CC2)c(Nc2ccc(I)cc2F)cc1=O` (stereo not drawn) [Example 2, 1-(2,3-dihydroxypropyl)-N-(4-(2-fluoro-4-iodophenylamino)-1-methyl-6-oxo-1,6-dihydropyridin-3-yl)cyclopropane-1-sulfonamide] yielded an EC50 in experiment [2] of 500 to 1000 nM. In addition, the GI50 with THP-1 and in the experiment with A375 cells was more than 1000 nM in each case. In addition, the IC50 in experiment [1] lay within 500 to 1000 nM.

Consider `Cn1cc(NS(=O)(=O)C2(CC(O)CO)CC2)c(Nc2ccc(I)cc2F)c(F)c1=O` (stereo not drawn) [Example 11, 1-(2,3-Dihydroxy-propyl)-cyclopropanesulfonic acid [5-fluoro-4-(2-fluoro-4-iodo-phenylamino)-1-methyl-6-oxo-1,6-dihydro-pyridin-3-yl]-amide], for which, in experiment [2], the EC50 was in the range of 100 to 500 nM. In experiment [1], the IC50 was less than 100 nM.

With `Cn1cc(NS(=O)(=O)C2CC2)c(Nc2ccc(Br)cc2F)cc1=O` [Example 8, Cyclopropanesulfonic acid [4-(4-bromo-2-fluoro-phenylamino)-1-methyl-6-oxo-1,6-dihydro-pyridin-3-yl]-amide], the IC50 in experiment [1] was more than 1000 nM.
